This is an account of results in ChEMBL document CHEMBL5678818, “Discovery of potent SOS1 inhibitors that block RAS activation via disruption of the RAS-SOS1 interaction” (Proc Natl Acad Sci U S A, 2019).

For assay [1], the target named is T1, Aurora kinase C (Homo sapiens) (UniProt Q9UQB9).
T1 sequence (whole entry): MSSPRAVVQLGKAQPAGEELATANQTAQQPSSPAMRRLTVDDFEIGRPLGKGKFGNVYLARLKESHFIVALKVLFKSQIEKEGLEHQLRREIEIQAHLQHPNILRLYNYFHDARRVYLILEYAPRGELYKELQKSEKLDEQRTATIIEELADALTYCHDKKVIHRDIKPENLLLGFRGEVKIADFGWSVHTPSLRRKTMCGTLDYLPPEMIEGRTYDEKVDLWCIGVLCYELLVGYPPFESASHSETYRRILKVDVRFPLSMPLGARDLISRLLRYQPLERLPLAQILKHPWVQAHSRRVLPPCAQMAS
The assay is described as follows: Inhibition of AURKC (unknown origin) assessed as residual activity at 1000 nM by KINOMEscan analysis relative to control.

The target of assay [2] is Death-associated protein kinase 3 (Homo sapiens) (UniProt O43293). The assay is described as follows: Inhibition of DAPK3 (unknown origin) assessed as residual activity at 1000 nM by KINOMEscan analysis relative to control.
Chain of Death-associated protein kinase 3 (Homo sapiens) (O43293 whole entry, looked up): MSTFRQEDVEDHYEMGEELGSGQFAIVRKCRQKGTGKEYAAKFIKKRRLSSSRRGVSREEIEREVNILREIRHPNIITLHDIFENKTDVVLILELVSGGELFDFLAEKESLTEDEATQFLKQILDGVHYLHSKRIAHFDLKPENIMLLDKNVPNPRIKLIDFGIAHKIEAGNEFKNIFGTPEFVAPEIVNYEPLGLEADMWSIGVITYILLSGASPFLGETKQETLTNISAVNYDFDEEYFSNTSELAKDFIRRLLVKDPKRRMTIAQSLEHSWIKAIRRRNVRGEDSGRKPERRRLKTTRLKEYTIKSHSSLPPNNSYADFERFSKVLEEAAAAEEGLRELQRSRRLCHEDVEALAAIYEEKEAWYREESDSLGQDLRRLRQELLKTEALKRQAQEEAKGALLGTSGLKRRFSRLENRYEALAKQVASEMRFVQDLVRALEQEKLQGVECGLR
Assay [3] addresses Ephrin type-A receptor 4 (Homo sapiens) (UniProt P54764). The experiment in a line: Inhibition of EPHA4 (unknown origin) assessed as residual activity at 1000 nM by KINOMEscan analysis relative to control.
For assay [4], the target named is Tyrosine-protein kinase Fes/Fps (Homo sapiens) (UniProt P07332). The experiment in a line: Inhibition of FES (unknown origin) assessed as residual activity at 1000 nM by KINOMEscan analysis relative to control.
Chain of Tyrosine-protein kinase Fes/Fps (Homo sapiens) (P07332 whole entry, the tested form may be a part): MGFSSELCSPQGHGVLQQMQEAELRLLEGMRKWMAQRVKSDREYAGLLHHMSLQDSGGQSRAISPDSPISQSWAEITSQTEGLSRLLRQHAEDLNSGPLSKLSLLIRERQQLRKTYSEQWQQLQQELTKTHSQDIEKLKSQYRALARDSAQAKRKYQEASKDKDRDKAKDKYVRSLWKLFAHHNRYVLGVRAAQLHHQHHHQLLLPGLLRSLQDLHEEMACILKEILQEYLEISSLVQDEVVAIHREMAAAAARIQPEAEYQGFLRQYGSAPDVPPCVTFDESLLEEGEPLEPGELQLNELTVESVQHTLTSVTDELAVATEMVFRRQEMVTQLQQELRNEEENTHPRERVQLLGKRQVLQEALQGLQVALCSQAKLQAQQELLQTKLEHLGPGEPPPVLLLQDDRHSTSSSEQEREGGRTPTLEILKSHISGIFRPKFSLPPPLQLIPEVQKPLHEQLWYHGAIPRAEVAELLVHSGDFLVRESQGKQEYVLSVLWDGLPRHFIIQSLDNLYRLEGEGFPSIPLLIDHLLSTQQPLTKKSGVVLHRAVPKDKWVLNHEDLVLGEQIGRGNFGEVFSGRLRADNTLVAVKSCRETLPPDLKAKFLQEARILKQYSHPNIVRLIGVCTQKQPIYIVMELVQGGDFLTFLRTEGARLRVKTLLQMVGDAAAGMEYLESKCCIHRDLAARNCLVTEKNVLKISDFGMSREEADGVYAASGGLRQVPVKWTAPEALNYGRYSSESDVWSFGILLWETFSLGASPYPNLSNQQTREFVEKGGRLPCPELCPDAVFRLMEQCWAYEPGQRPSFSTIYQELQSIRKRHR
The target of assay [5] is LIM domain kinase 1 (Homo sapiens) (UniProt P53667). The assay is described as follows: Inhibition of LIMK1 (unknown origin) assessed as residual activity at 1000 nM by KINOMEscan analysis relative to control.
Chain of LIM domain kinase 1 (Homo sapiens) (P53667 whole entry, looked up, the tested form may be a part): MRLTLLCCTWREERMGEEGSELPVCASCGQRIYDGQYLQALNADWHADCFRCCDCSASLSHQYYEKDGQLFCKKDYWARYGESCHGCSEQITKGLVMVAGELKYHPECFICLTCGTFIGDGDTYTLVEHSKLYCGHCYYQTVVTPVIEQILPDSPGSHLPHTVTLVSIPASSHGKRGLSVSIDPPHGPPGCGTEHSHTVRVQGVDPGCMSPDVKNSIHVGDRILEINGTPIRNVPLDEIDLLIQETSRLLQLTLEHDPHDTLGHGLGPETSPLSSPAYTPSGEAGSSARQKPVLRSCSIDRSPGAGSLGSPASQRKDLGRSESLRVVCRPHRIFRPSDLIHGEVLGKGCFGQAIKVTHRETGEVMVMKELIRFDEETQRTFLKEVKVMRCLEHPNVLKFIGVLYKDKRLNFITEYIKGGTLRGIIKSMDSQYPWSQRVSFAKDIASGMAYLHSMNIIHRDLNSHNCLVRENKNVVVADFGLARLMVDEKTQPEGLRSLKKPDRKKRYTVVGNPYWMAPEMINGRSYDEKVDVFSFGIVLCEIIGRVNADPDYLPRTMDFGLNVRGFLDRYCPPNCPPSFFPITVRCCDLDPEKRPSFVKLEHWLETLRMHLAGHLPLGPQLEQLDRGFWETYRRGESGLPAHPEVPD
Assay [6] deals with T2, Muscle, skeletal receptor tyrosine-protein kinase (Homo sapiens) (UniProt O15146).
T2 sequence (whole entry): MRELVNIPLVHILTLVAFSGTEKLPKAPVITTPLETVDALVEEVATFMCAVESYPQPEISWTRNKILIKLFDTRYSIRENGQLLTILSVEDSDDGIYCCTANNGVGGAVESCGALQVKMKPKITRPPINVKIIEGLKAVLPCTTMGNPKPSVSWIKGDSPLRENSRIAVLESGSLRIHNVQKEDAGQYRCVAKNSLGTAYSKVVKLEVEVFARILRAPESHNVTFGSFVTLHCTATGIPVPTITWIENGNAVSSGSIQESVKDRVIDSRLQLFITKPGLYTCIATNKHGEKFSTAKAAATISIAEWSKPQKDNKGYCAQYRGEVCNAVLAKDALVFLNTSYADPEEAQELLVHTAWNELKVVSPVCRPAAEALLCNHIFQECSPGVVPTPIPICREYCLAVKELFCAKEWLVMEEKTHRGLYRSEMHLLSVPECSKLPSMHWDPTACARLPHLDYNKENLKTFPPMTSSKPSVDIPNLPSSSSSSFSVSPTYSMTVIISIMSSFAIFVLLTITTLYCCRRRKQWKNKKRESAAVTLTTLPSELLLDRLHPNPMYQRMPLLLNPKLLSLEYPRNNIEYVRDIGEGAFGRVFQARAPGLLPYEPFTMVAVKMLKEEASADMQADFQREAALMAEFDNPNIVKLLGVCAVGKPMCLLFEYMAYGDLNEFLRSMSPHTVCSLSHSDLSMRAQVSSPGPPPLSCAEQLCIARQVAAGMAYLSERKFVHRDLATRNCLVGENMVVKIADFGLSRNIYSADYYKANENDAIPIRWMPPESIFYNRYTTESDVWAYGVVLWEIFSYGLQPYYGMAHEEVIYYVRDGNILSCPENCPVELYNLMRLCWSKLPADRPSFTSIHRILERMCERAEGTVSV
The experiment in a line: Inhibition of MUSK (unknown origin) assessed as residual activity at 1000 nM by KINOMEscan analysis relative to control.

In assay [7] the target is T3, Serine/threonine-protein kinase Nek10 (Homo sapiens) (UniProt Q6ZWH5).
T3 sequence (whole entry): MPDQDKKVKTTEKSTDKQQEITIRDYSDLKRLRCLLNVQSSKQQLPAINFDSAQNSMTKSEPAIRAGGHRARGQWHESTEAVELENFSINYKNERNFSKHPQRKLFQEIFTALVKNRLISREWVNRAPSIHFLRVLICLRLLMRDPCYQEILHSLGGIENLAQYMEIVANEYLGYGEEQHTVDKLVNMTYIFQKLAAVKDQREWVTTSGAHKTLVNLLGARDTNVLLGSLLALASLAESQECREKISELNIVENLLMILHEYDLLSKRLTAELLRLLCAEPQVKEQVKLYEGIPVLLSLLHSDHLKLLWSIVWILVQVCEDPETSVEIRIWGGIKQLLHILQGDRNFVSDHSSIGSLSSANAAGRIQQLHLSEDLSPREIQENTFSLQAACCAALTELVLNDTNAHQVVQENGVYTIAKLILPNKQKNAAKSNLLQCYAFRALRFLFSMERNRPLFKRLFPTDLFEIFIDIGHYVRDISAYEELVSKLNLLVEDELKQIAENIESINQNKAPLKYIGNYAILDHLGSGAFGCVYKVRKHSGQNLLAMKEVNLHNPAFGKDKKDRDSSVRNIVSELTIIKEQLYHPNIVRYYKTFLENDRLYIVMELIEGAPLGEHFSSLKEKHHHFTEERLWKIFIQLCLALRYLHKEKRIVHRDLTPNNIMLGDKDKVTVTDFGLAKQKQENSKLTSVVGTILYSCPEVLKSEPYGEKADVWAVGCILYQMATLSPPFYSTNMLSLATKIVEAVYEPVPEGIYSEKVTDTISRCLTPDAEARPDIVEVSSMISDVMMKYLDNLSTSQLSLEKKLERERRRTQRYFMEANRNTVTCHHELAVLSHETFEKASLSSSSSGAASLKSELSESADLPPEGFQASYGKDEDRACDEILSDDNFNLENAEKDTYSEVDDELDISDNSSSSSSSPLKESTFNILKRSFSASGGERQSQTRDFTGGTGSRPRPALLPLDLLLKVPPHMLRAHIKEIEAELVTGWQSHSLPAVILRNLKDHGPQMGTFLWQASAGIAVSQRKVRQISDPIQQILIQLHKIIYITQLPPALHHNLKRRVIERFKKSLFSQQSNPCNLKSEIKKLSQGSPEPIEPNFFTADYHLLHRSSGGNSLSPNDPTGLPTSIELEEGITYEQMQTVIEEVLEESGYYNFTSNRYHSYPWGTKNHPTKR
The experiment in a line: Inhibition of NEK10 (unknown origin) assessed as residual activity at 1000 nM by KINOMEscan analysis relative to control.

The target in assay [8] is Serine/threonine-protein kinase pim-1 (Homo sapiens) (UniProt P11309). The assay is described as follows: Inhibition of PIM1 (unknown origin) assessed as residual activity at 1000 nM by KINOMEscan analysis relative to control.
Chain of Serine/threonine-protein kinase pim-1 (Homo sapiens) (P11309 whole entry, looked up): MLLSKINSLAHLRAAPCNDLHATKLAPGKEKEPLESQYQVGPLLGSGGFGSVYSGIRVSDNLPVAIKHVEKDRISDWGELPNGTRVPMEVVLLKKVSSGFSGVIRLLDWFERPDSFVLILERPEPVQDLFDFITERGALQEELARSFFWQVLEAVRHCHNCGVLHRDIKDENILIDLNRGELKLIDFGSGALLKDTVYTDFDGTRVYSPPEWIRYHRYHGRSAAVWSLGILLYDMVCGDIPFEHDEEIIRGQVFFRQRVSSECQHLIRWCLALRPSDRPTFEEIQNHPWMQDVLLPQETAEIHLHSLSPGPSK
For assay [9], the target named is Serine/threonine-protein kinase 33 (Homo sapiens) (UniProt Q9BYT3). The assay is described as follows: Inhibition of STK33 (unknown origin) assessed as residual activity at 1000 nM by KINOMEscan analysis relative to control.
Chain of Serine/threonine-protein kinase 33 (Homo sapiens) (Q9BYT3 whole entry, looked up): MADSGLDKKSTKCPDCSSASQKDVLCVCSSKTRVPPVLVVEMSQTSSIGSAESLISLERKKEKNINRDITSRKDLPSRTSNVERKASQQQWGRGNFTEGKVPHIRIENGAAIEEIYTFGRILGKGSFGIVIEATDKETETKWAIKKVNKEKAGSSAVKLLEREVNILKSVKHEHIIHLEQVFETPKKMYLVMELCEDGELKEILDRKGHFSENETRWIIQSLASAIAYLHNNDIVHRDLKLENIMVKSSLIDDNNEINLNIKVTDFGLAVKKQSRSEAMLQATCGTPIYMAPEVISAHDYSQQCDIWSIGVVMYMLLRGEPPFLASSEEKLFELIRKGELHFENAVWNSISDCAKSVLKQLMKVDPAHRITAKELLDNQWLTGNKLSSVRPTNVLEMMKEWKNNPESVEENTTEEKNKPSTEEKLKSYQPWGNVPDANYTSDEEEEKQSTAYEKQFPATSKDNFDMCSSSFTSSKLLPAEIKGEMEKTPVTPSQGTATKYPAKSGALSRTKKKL

Structures are written as SMILES.

Chain of Ephrin type-A receptor 4 (Homo sapiens) (P54764 whole entry): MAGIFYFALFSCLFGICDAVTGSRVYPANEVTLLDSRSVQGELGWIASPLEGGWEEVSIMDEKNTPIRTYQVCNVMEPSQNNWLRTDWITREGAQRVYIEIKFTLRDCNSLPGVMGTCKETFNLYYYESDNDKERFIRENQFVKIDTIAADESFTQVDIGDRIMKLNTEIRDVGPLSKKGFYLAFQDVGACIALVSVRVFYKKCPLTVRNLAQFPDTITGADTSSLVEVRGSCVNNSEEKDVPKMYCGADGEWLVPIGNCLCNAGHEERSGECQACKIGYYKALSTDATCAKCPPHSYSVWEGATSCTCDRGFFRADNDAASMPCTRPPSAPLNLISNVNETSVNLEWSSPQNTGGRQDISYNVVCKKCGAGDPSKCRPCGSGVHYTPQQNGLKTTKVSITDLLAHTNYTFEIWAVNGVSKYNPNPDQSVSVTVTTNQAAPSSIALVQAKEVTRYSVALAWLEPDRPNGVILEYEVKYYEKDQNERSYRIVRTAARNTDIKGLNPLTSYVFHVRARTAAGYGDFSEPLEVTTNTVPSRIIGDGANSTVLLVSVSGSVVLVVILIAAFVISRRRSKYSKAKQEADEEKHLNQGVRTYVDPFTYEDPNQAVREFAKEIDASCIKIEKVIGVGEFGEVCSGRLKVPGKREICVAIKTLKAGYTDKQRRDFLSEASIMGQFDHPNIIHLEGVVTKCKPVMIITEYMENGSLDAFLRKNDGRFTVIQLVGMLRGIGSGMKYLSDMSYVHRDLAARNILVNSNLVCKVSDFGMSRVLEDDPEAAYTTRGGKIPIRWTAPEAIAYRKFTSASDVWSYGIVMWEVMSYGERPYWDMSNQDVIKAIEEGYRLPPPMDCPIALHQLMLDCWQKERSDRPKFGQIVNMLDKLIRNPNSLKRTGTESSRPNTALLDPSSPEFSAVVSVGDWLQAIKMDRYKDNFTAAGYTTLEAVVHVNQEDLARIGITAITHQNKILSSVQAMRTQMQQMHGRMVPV

Turning to `COc1cc2nc(C)nc(N[C@H](C)c3cccc(-c4cn[nH]c4)c3)c2cc1OC`, the Activity amounted to 74% in assay [1]; 76% in assay [2]; 96% in assay [3]; 45% in [4]; 100% in [5]; 91% in assay [6]. Further, the Activity in assay [7] is 90%; in [8], 79%; in assay [9], 100%.
In the case of `COc1cc2ncnc(N[C@H](C)c3cccc4ccccc34)c2cc1OC`, the Activity in [1] is 100%; in assay [2], 100%; in assay [3], 95%; in [4], 99%; in assay [5], 100%; in assay [6], 97%. Moreover, the Activity in assay [7] amounted to 68%; in assay [8], 98%; in [9], 68%.
